Assay [1] deals with PI3K. The assay is described as follows: PI3K protein levels by ELISA in HepG2 cells. The following applies: IC50 concentration, 24 h, compared to 1% DMSO control. Format: cell-based, human. As to the method:
(§1) The protein levels of PI3K in MCF-7 and HepG2 cells were assessed using enzyme-linked immunosorbent assay (ELISA) kits. […] After the incubation period, the medium was collected, and PI3K protein levels were measured using ELISA kits according to the manufacturer’s instructions (Cat no: ELK9879, ELK Biotechnology, Denver, USA).
A general note: An ELISA detects its analyte on a solid surface through an enzyme-linked reagent.

For assay [2], the system named is PI3K. The assay is described as follows: PI3K protein levels by ELISA in MCF-7 cells. Format: cell-based, human. The following applies: IC50 concentration, 24 h, compared to 1% DMSO control. How it is done:
as §1

A further assay relates to MCF-7 cells. The assay is described as follows: MTT assay, antiproliferative activity, MCF-7. The following applies: for IC50: Homo sapiens, MCF7, MTT, 24 h treatment, mean ± SD; for Selectivity Index (SI) MCF-7: IC50 of healthy cells (NIH/3T3)/IC50 of cancer cells. Format: cell-based, human. How it is done: (§2) MCF-7 (human ER + breast cancer, HTB-22, USA), A549 (human nonsmall cell lung cancer, ATTC CRM-CCL-185, USA), HepG2 (human liver cancer, ATTC HB-8065, USA), and NIH/3T3 (mouse embryonic fibroblast, ATCC, CRL-1658, USA) cells were maintained in DMEM supplemented with 10% fetal bovine serum and 1% penicillin/streptomycin. The cells were maintained under appropriate conditions (37 °C, 5% CO2).
(§3) The antiproliferative activity of the newly synthesized compounds was measured using the MTT assay as described in a previous study. Briefly, cells were seeded at a density of 6 × 10^3 cells/well and incubated for 24 h in a 37 °C humidified incubator with 5% CO2. Afterwards, the cells were treated with increasing concentrations (1, 2.5, 5, 10, 25, 50, 75, and 100 μM) of compounds and incubated for another 24 h. Moreover, some cells were incubated with doxorubicin (1, 5, 10, 25, and 50 μM) for comparison, while other cells treated only with 1% DMSO was used as the solvent control. After incubation, 20 μL of MTT solution (5 mg/mL in PBS) was added to each well, and the plate was incubated for 4 h under the same conditions. Following this period, the medium was discarded and replaced with DMSO. The absorbance of dissolved formazan crystals was measured using a multiplate reader. The IC50 value and the selectivity index of each compound were calculated as previously described.
(§4) The antiproliferative effect of all newly synthesized thiazole-integrated pyrrolotriazinone derivatives were assessed against cancer cell lines (MCF-7, A549, and HepG2) as well as a healthy cell line (NIH/3T3) using the MTT assay. The IC50 values were determined through the nonlinear regression algorithm for log (inhibitor) versus normalized response-variable slope, as implemented in GraphPad [Y = 100/(1 + 10^X−LogIC50), where X represents the logarithm of the inhibitor concentration and Y denotes the response]. Additionally, Selectivity Indices (SI: IC50 of healthy cells/IC50 of cancer cells) were calculated.

The subject of another assay is NIH/3T3 cells. Put plainly: MTT assay, healthy cell line NIH/3T3. Format: cell-based. The following applies: Mus musculus, NIH3T3, 24 h treatment, mean ± SD. How it is done: as §2, §3, §4
For orientation: Formazan colour is commonly taken as a measure of viable cells.

Another assay deals with HepG2 cells. The assay is described as follows: MTT assay, antiproliferative activity, HepG2. Type of assay: cell-based, human. The settings on record: for IC50: Homo sapiens, HepG2, MTT, 24 h treatment, mean ± SD; for Selectivity Index (SI) HepG2: IC50 of healthy cells (NIH/3T3)/IC50 of cancer cells. As to the method:
as §2, §3, §4

A further assay concerns A549 cells. The assay is described as follows: MTT assay, antiproliferative activity, A549. Type of assay: cell-based, human. The following applies: for IC50: Homo sapiens, A549, MTT, 24 h treatment, mean ± SD; for Selectivity Index (SI) A549: IC50 of healthy cells (NIH/3T3)/IC50 of cancer cells. As to the method:
as §2, §3, §4

The target of the next assay is PI3K enzyme. The settings on record: cited from earlier work.

Entries after “also recorded” stand apart in the source; their conditions may differ. A value given as a limit tells only on which side of the number the result lay.

As to `O=c1n(-c2nc(-c3ccc(Cl)cc3)cs2)ncc2cccn12` [Compound 21, 3-(4-(4-chlorophenyl)thiazol-2-yl)pyrrolo[1,2-d][1,2,4]triazin-4(3H)-one], the “PI3K protein levels in HepG2 cells” value with PI3K [1] is given as “did not alter PI3K levels”. The “PI3K protein levels in MCF-7 cells” value with PI3K [2] is listed as “significantly reduced; also recorded: did reduce PI3K levels”. For the same compound, in the assay on MCF-7 cells, the IC50 turned out to be 11.2 ± 0.12 µM and the “Selectivity Index (SI) MCF-7” value turned out to be 9.51. In addition, the IC50 in the assay on NIH/3T3 cells is greater than 100 µM. For the same compound, in the assay on HepG2 cells, half-maximal inhibition (IC50) was put at 10.2 ± 0.95 µM and the “Selectivity Index (SI) HepG2” value turned out to be 10.40. In the assay with A549 cells, the midpoint of inhibition, the IC50, lay at 39.2 ± 1.41 µM and the “Selectivity Index (SI) A549” value was 2.72.

As for `Cc1ccn2nc(C(C)n3cnc4c(N)ncnc43)n(-c3ccccc3)c(=O)c12` (stereo not drawn) [Compound 6], on PI3K enzyme, the IC50 was 0.075 µM.

Regarding `O=c1n(-c2nc(-c3ccc(Cl)cc3Cl)cs2)ncc2cccn12` [Compound 27, 3-(4-(2,4-dichlorophenyl)thiazol-2-yl)pyrrolo[1,2-d][1,2,4]triazin-4(3H)-one], the “PI3K protein levels in HepG2 cells” value with PI3K [1] is listed as “markedly diminished; also recorded: reduced PI3K levels; also recorded: significant reduction in PI3K protein levels”. Besides, the “PI3K protein levels in MCF-7 cells” value in the assay on PI3K [2] was “significantly reduced; also recorded: reduced PI3K levels; also recorded: significant reduction in PI3K protein levels”. The IC50 in the assay with MCF-7 cells is 9.23 ± 1.09 µM; in the assay on NIH/3T3 cells it was greater than 100 µM; in the assay on HepG2 cells, 6.18 ± 0.63 µM; with A549 cells it was 37.2 ± 1.15 µM. In addition, in the assay on MCF-7 cells, the “Selectivity Index (SI) MCF-7” value is listed as 10.30. Besides, the “Selectivity Index (SI) A549” value in the assay with A549 cells turned out to be 2.83.

Turning to `O=c1n(-c2nc(-c3ccc(F)c(Cl)c3)cs2)ncc2cccn12` [Compound 26, 3-(4-(3-chloro-4-fluorophenyl)thiazol-2-yl)pyrrolo[1,2-d][1,2,4]triazin-4(3H)-one], in the assay on PI3K [2], the “PI3K protein levels in MCF-7 cells” value is “significantly reduced”. Further, the IC50 was 14.2 ± 0.42 µM in the assay with MCF-7 cells, greater than 100 µM with NIH/3T3 cells, 15.1 ± 0.61 µM with HepG2 cells and 25.2 ± 0.39 µM in the assay with A549 cells. In addition, the “Selectivity Index (SI) HepG2” value in the assay on HepG2 cells was 9.22. In the assay with A549 cells, the “Selectivity Index (SI) A549” value is 5.53.

Take `Cc1ccccc1-n1c(Cn2cnc3c(N)ncnc32)nn2ccc(C)c2c1=O` [Compound 5]: the IC50 on PI3K enzyme was 0.11 µM.

With `Cc1ccccc1-n1c(Cn2cnc3c(N)ncnc32)nc2cccc(C)c2c1=O` [IC87114], the 50% inhibitory concentration (IC50) at PI3K enzyme is 0.13 µM.

`O=c1n(-c2nc(-c3ccc(Cl)c(Cl)c3)cs2)ncc2cccn12` [Compound 25, 3-(4-(3,4-dichlorophenyl)thiazol-2-yl)pyrrolo[1,2-d][1,2,4]triazin-4(3H)-one]: the “PI3K protein levels in HepG2 cells” value in the assay on PI3K [1] is “markedly diminished; also recorded: significant reduction in PI3K protein levels”. In addition, the “PI3K protein levels in MCF-7 cells” value with PI3K [2] is listed as “significantly reduced; also recorded: significant reduction in PI3K protein levels”. In the assay with MCF-7 cells, the IC50 was determined as 8.1 ± 0.17 µM and the “Selectivity Index (SI) MCF-7” value stood at 13.60. The same compound displayed an IC50 in the assay on NIH/3T3 cells greater than 100 µM. In addition, in the assay with HepG2 cells, the midpoint of inhibition, the IC50, lay at 7.21 µM and the “Selectivity Index (SI) HepG2” value came out at 15.20. In the assay on A549 cells, the IC50 is 38.7 ± 0.4 µM and the “Selectivity Index (SI) A549” value is 2.84.

In general, IC50 refers to the concentration at which inhibition is half-maximal.
